4 molecules from patent US5925528A, “Murine cell lines which over produce acidic fibroblast growth factor (aFGF) and method of using same” (Ohio State University Research Foundation, priority 1997, dated 1999) can be followed below.

The term Kd denotes the free concentration of one partner at which half of the binding sites on the other are occupied at equilibrium, for simple one-to-one binding.

Entries after “also recorded” stand apart in the source; their conditions may differ.

In experiment [1] the test system is sense transfectants (Tr31-5-1, Tr33-1-2, Tr34-4-1 and Tr34-1-1). The experiment is described as follows: Mitogenic response ([3H]thymidine) of sense transfectants compared with parental NIH/3T3 cells. It is filed as cell-based, mouse. Here is the method: (§1) FIG. 12 is a graph showing the mitogenic effects of different growth factors to various transfected cell lines. Cells were grown to confluence, changed to Dulbecco's modified Eagle medium containing 0.5% calf serum and grown for two more days. Different growth factors or calf serum was then added to the medium to stimulate cells to grow. [^3 H]thymidine was added 18 hours after addition of the mitogens and cells were incubated for another 6 hours. Bovine aFGF (b-aFGF) represents the truncated forms while human aFGF purified from Tr31-5-1 (rh-aFGF) represents the full-length protein. Cell lines, Tr31-5-1, 33-1-2, 34-1-1, and 34-4-1 are NIH/3T3 derivatives containing the aFGF cDNA construct in the positive orientation; whereas Tr31-11-1 contains aFGF cDNA in the anti-sense orientation.
(§2) Cells transfected with the EDNA coding for the full-length human aFGF were compared with the parental NIH/3T3 cells by determining their responses to various mitogens. […] Therefore, the lack of mitogenic response of Tr31-5-1 and Tr33-1-2 to rh-aFGF is not likely due to the trivial explanation of a defective mitogen. Thus, Tr31-5-1 and Tr33-1-2 may have lost some component of the pathway and these cell lines provide a unique means for elucidating the components responsive to the full-length aFGF.

The subject of a further experiment is Tr31-5-1 cells. The experiment is described as follows: Mitogenic response ([3H]thymidine) of Tr31-5-1 cells. It is filed as cell-based, mouse. As to conditions: listed as full-length aFGF. Here is the method:
as §1, §2

In experiment [2] the test system is newt KGFR. In words: Binding assay (Scatchard plot) using KPTr2-2 cells and 125I-aFGF. As to conditions: KPTr2-2 cells, read-out: Kd of newt KGFR toward human aFGF. Further details: species or system newt (Notophthalamus viridescens). An excerpt: (§3) Binding assays using KPTr2-2 and ^125 I-aFGF have been carried out. […] The Kd is slightly higher than the typical sub-nM range of mammalian KGFR. However, this may reflect the species difference since we used a human ligand for the newt receptor.

Another experiment relates to Swiss/3T3 cells. In words: Mitogenic response ([3H]thymidine) of Swiss/3T3 cells. It counts as cell-based.
For a further experiment, the system named is NIH/3T3 cells. In words: Mitogenic response ([3H]thymidine) of NIH/3T3 cells. It is filed as cell-based, mouse. Here is the method: as §1, §2
A further experiment relates to Tr33-1-2 cells. The experiment is described as follows: Mitogenic response ([3H]thymidine) of Tr33-1-2 cells. It counts as cell-based, mouse. As to conditions: listed as full-length aFGF. Here is the method:
as §1, §2

For experiment [3], the system named is newt KGFR. The experiment is described as follows: Competition assay using KPTr2-2 and 125I-aFGF. It is filed as binding, newt (Notophthalamus viridescens). Conditions: KPTr2-2 cells, compared with aFGF.
Description: as §3

Experiment [4] concerns newt KGFR. The experiment is described as follows: Crosslinking of 125I-aFGF to CHO-K1 cells over-expressing newt KGFR (KPTr2-2), competition with excess cold ligand. It is filed as binding, newt (Notophthalamus viridescens). Conditions: 500-fold molar excess of cold ligand, KPTr2-2 cells. Here is the method:
CHO cells transfected with pBJ5 vector (lane 1) or with newt KGFR expression vector (lanes 2-4) were crosslinked with ^125 I-aFGF using 0.3 mM disuccinimidyl suberate (DSS). Excess amounts (500-fold) of aFGF (lane 3) or KGF (lane 4) were used to compete with ^125 I-aFGF. Crosslinked products were analyzed on a 7.5% SDS-polyacrylamide gel.
To characterize the newt FGFR EDNA functionally, the newt KGFR were expressed in CHO-K1 cells. The mammalian expression vector, pBJ5, which contains a chimeric promoter derived from HTLV-I and SV40, was used to express the newt KGFR and FGFR2 cDNA. […] The crosslinked product is absent in KPTr1-8, the CHO cells that were transfected with the pBJ5 vector alone. The crosslinked product thus appears to be specific. Similarly, a cell line over-expressing the human KGFR (T-1063-29-2 from S. A. Aaronson, NIH) was able to produce a somewhat smaller crosslinked product than the newt KGFR. Antibodies (both monoclonal and polyclonal) directed against a peptide from the carboxyl terminus of the newt FGFR2 are generated.

Consider “human aFGF: human aFGF purified from Tr31-5-1 (rh-aFGF) represents the full-length protein”, for which, in experiment [1] (sense transfectants with the exception of Tr33-1-2), the “mitogenic response relative to parental NIH/3T3 cells” value is “respond less strongly than the parental NIH/3T3 cells”. Also, the mitogenic response entry is “failed to give any mitogenic responses; also recorded: do not respond” in the experiment with Tr31-5-1 cells, “responded to the mitogenic stimulation” in the experiment on Swiss/3T3 cells, “responded to the mitogenic stimulation” with NIH/3T3 cells and “failed to give any mitogenic responses; also recorded: do not respond” in the experiment on Tr33-1-2 cells. In addition, the Kd in the experiment on newt KGFR [2] came to 1.3 nM.

“human recombinant bFGF: human recombinant basic fibroblast growth factor”: the “competition with 125I-aFGF” value in the experiment on newt KGFR [3] is reported as “does not compete as well as aFGF”.

PDGF [reference compound]: in experiment [1] (sense transfectants Tr31-5-1, Tr33-1-2, Tr34-4-1 and Tr34-1-1), the “mitogenic response relative to parental NIH/3T3 cells” value is listed as “stronger mitogenic responses than NIH/3T3 cells”.

B1: human recombinant KGF: human recombinant keratinocyte growth factor (protein, UniProt P21781 32-194, looked up)
Fibroblast growth factor 7: CNDMTPEQMATNVNCSSPERHTRSYDYMEGGDIRVRRLFCRTQWYLRIDKRGKVKGTQEMKNNYNIMEIRTVAVGIVAIKGVESEFYLAMNKEGKLYAKKECNEDCNFKELILENHYNTYASAKWTHNGGEMFVALNQKGIPVRGKKTKKEQKTAHFLPMAIT
As for B1, the “competition of the 150 kDa crosslinked product” value in the experiment with newt KGFR [4] is reported as “successfully competed off”.
